Measured values: patent US10508077B2 (FORMA Therapeutics, Inc., priority 2015, dated 2019)
Counter-ions that a name gives are not always drawn.

Experiments:
[1] = target: T1, Full length human recombinant HDAC8 protein (Homo sapiens, UniProt Q9BY41); assay: In vitro histone deacetylase assay: enzymatic HDAC8 assay, electrophoretic mobility shift; type: biochemical; details: substrate RHKK(Ac)-NH2, 1 nM enzyme, compounds listed under IC50 range headings
T1 construct: Full length human recombinant HDAC8 protein was expressed in baculoviral system; made in house
T1 sequence (Q9BY41 1-377): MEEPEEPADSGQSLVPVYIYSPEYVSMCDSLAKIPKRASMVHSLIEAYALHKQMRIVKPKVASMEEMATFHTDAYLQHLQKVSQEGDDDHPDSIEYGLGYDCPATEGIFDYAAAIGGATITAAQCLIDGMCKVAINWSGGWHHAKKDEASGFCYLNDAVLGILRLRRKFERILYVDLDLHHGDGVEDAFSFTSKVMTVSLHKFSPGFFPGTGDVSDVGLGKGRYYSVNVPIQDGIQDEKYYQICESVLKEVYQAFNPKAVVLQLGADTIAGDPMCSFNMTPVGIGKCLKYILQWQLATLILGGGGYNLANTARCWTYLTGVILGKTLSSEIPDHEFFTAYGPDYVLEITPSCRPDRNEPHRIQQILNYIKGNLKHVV
Procedure, shortened: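 Baculovirus-expressed full-length human HDAC8 (1 nM) deacetylated 2 µM fluorescent RHKK(Ac)-NH2 peptide in pH 7.5 HEPES, 1% DMSO, at 25 °C, with 12 compound concentrations at 3× spacing. SDS-quenched; product and substrate resolved by microfluidic electrophoresis, P/(S+P) converted to percent inhibition, and IC50 obtained by 4-parameter fit.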

[2] = target: T2, Recombinant N-terminal GST tag full-length human HDAC8 (Homo sapiens, UniProt Q9BY41); assay: HDAC8 probe binding assay, time resolved fluorescence (TRF); details: fluorescein labeled pan-HDAC inhibitor probe, 16 hours incubation, compounds listed under IC50 range headings
T2 construct: Recombinant N-terminal GST tag full-length human HDAC8; purchased SignalChem H90-30G-1000; host or cells: Sf9 insect cells (baculovirus)
T2 sequence (Q9BY41 1-377): T1 sequence (Q9BY41 1-377)
Procedure, shortened: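 TR-FRET probe displacement using GST-tagged full-length human HDAC8 (Sf9-expressed, 2.5 nM) with 1.5 nM fluorescein-labelled pan-HDAC inhibitor probe and anti-GST terbium, in HEPES pH 7.5 buffer with GSH, BGG, Triton X-100. Compounds 25 μM–1.3 nM, 10-point; 16 h at room temperature. IC50 from 4-parameter fit of % inhibition versus no-enzyme and DMSO controls.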

Row | Compound | IC50 [1] [nM] | IC50 [2] [nM]
1 | Cc1onc(-c2ccc(F)cc2)c1C(=O)Nc1ccccc1/C=C/C(=O)NO [Example I-323, (E)-3-(4-fluorophenyl)-N-(2-(3-(hydroxyamino)-3-oxoprop-1-en-1-yl)phenyl)-5-methylisoxazole-4-carboxamide] | < 1000 | ≤ 1000
2 | O=C(NO)/C(F)=C/c1ccccc1NC(=O)c1cccc(C(F)(F)F)c1 [Example I-324, (Z)—N-(2-(2-fluoro-3-(hydroxyamino)-3-oxoprop-1-en-1-yl)phenyl)-3-(trifluoromethyl)benzamide] | < 1000 | ≤ 1000
3 | O=C(NO)/C(F)=C/c1ccccc1NC(=O)c1ccccc1Oc1ccccc1 [Example I-325, (Z)—N-(2-(2-fluoro-3-(hydroxyamino)-3-oxoprop-1-enyl)phenyl)-2-phenoxybenzamide hydrochloride] | < 1000 | ≤ 1000
4 | CN1CCN(c2ccccc2/C=C/C(=O)NO)CC1 [Example I-326, (E)-N-hydroxy-3-(2-(4-methylpiperazin-1-yl)phenyl)acrylamide] | < 1000 | ≤ 1000
5 | O=C(/C=C/c1ccccc1N1CCN(S(=O)(=O)c2ccccc2)CC1=O)NO [Example I-526, (E)-N-hydroxy-3-(2-(2-oxo-4-(phenylsulfonyl)piperazin-1-yl)phenyl)acrylamide] | < 1000 | ≤ 1000
6 | O=C(/C=C/c1ccccc1N1CCN(S(=O)(=O)c2ccc(OC(F)(F)F)cc2)CC1=O)NO [Example I-527, (E)-N-hydroxy-3-(2-(2-oxo-4-((4-(trifluoromethoxy)phenyl)sulfonyl)piperazin-1-yl)phenyl)acrylamide] | < 1000 | ≤ 1000
7 | COc1ccc(NC(=O)N2CCN(c3ccccc3/C=C/C(=O)NO)C(=O)C2)cc1 [Example I-529, (E)-4-(2-(3-(hydroxyamino)-3-oxoprop-1-en-1-yl)phenyl)-N-(4-methoxyphenyl)-3-oxopiperazine-1-carboxamide] | < 1000 | ≤ 1000
8 | O=C(/C=C/c1ccccc1N1CCN(Cc2ccc(F)cc2)CC1=O)NO [Example I-530, (E)-3-(2-(4-(4-fluorobenzyl)-2-oxopiperazin-1-yl)phenyl)-N-hydroxyacrylamide] | < 1000 | ≤ 1000
9 | Cc1ccc(N2CCN(c3ccccc3/C=C/C(=O)NO)C(=O)C2)cc1 [Example I-533, (E)-N-hydroxy-3-(2-(2-oxo-4-(p-tolyl)piperazin-1-yl)phenyl)acrylamide] | < 1000 | ≤ 1000
10 | O=C(/C=C/c1ccccc1NC(=O)c1ccccc1Oc1ccc(Cl)cc1F)NO [Example I-534, (E)-2-(4-chloro-2-fluorophenoxy)-N-(2-(3-(hydroxyamino)-3-oxoprop-1-en-1-yl)phenyl)benzamide] | < 1000 | ≤ 1000
11 | Cc1ccc(Oc2ccccc2C(=O)Nc2ccccc2/C=C/C(=O)NO)cn1 [Example I-535, (E)-N-(2-(3-(hydroxyamino)-3-oxoprop-1-en-1-yl)phenyl)-2-((6-methylpyridin-3-yl)oxy)benzamide] | < 1000 | ≤ 1000
12 | O=C(/C=C/c1ccccc1NC(=O)c1cccc(Oc2ccccc2)c1)NO [Example I-536, (E)-N-(2-(3-(hydroxyamino)-3-oxoprop-1-en-1-yl)phenyl)-3-phenoxybenzamide] | < 1000 | ≤ 1000
13 | O=C(/C=C/c1ccccc1NC(=O)c1ncccc1Oc1ccccc1)NO [Example I-537, N-{2-[(1E)-2-(hydroxycarbamoyl)eth-1-en-1-yl]phenyl}-3-phenoxypyridine-2-carboxamide] | < 1000 | ≤ 1000
14 | CC(C)(C)OC(=O)N1CCCCC12CCN(c1ccccc1/C=C/C(=O)NO)CC2 [Example I-538, tert-butyl (E)-9-(2-(3-(hydroxyamino)-3-oxoprop-1-en-1-yl)phenyl)-1,9-diazaspiro[5.5]undecane-1-carboxylate] | < 1000 | ≤ 1000
15 | O=C(/C=C/c1ccccc1NC(=O)c1ncsc1Oc1ccccc1)NO [Example I-539, N-{2-[(1E)-2-(hydroxycarbamoyl)eth-1-en-1-yl]phenyl}-5-phenoxy-1,3-thiazole-4-carboxamide] | < 1000 | ≤ 1000
16 | O=C(/C=C/c1ccccc1NC(=O)c1ccccc1Oc1ccc(C(F)(F)F)nc1)NO [Example I-540, (E)-N-(2-(3-(hydroxyamino)-3-oxoprop-1-en-1-yl)phenyl)-2-((6-(trifluoromethyl)pyridin-3-yl)oxy)benzamide] | < 1000 | ≤ 1000
17 | CC(C)(C)OC(=O)N1CCCC12CCN(c1ccccc1/C=C/C(=O)NO)C2 (stereo not drawn) [Example I-541, tert-butyl (E)-7-(2-(3-(hydroxyamino)-3-oxoprop-1-en-1-yl)phenyl)-1,7-diazaspiro[4.4]nonane-1-carboxylate] | < 1000 | ≤ 1000
18 | CC(C)(C)OC(=O)N1CC2(CCCN2c2ccccc2/C=C/C(=O)NO)C1 [Example I-542, tert-butyl (E)-5-(2-(3-(hydroxyamino)-3-oxoprop-1-en-1-yl)phenyl)-2,5-diazaspiro[3.4]octane-2-carboxylate] | < 1000 | ≤ 1000
19 | CC(C)(C)OC(=O)N1CCCCC12CCN(c1ccccc1/C=C/C(=O)NO)C2 (stereo not drawn) [Example I-543, tert-butyl (E)-2-(2-(3-(hydroxyamino)-3-oxoprop-1-en-1-yl)phenyl)-2,6-diazaspiro[4.5]decane-6-carboxylate] | < 1000 | ≤ 1000
20 | O=C(/C=C/c1ccccc1NC(=O)c1nc(Oc2ccccc2)cs1)NO [Example I-544, N-{2-[(1E)-2-(hydroxycarbamoyl)eth-1-en-1-yl]phenyl}-4-phenoxy-1,3-thiazole-2-carboxamide] | < 1000 | ≤ 1000
21 | CC(=O)N1CCCC12CCN(c1ccccc1/C=C/C(=O)NO)C2 (stereo not drawn) [Example I-545] | < 1000 | ≤ 1000
22 | CC(=O)N1CC2(CCCN2c2ccccc2/C=C/C(=O)NO)C1 [Example I-547, (E)-3-(2-(2-acetyl-2,5-diazaspiro[3.4]octan-5-yl)phenyl)-N-hydroxyacrylamide] | < 1000 | ≤ 1000
23 | O=C(/C=C/c1cc(C(F)(F)F)ccc1NC(=O)c1ccccc1Oc1ccc(F)cc1)NO [Example I-556, 2-(4-fluorophenoxy)-N-{2-[(1E)-2-(hydroxycarbamoyl)eth-1-en-1-yl]-4-(trifluoromethyl)phenyl}benazmide] | < 1000 | ≤ 1000
24 | O=C(/C=C/c1cc(OC(F)(F)F)ccc1NC(=O)c1ccccc1Oc1ccc(F)cc1)NO [Example I-557, 2-(4-fluorophenoxy)-N-{2-[(1E)-2-(hydroxycarbamoyl)eth-1-en-1-yl]-4-(trifluoromethoxy)phenyl}benzamide] | < 1000 | ≤ 1000
25 | O=C(/C=C/c1ccccc1C(=O)N1CCCC1)NO [II-15, (E)-N-hydroxy-3-(2-(pyrrolidine-1-carbonyl)phenyl)acrylamide] | < 1000 | ≤ 1000
26 | O=C(/C=C/c1ccccc1C(=O)N1CCN(c2cnccn2)CC1)NO [II-22, (E)-N-hydroxy-3-(2-(4-(pyrazin-2-yl)piperazine-1-carbonyl)phenyl)acrylamide] | < 1000 | ≤ 1000
27 | O=C(/C=C/c1ccccc1C(=O)N1CCC[C@H](Cn2ccnc2)C1)NO [II-27, (R,E)-3-(2-(3-((1H-imidazol-1-yl)methyl)piperidine-1-carbonyl)phenyl)-N-hydroxyacrylamide] | < 1000 | ≤ 1000
28 | O=C(/C=C/c1ccccc1C(=O)N1CCC(F)(F)C1)NO [II-28, (E)-3-(2-(3,3-difluoropyrrolidine-1-carbonyl)phenyl)-N-hydroxyacrylamide] | < 1000 | ≤ 1000
29 | O=C(/C=C/c1ccccc1S(=O)(=O)C1CCN(C(=O)Cc2ccc(Cl)cc2)CC1)NO [II-29] | < 1000 | ≤ 1000
30 | COc1ccc(/C=C/C(=O)NO)c(NC(=O)c2ccccc2Oc2ccc(Cl)cc2F)c1 [II-37, 2-(4-chloro-2-fluorophenoxy)-N-{2-[(1E)-2-(hydroxycarbamoyl)eth-1-en-1-yl]-5-methoxyphenyl}benzamide] | < 1000 | ≤ 1000
